In ChEMBL document CHEMBL1201862, “PubChem BioAssay data set” (2004) one finds AC50, IC50 and EC50 data, which are given here for ten compounds.

The source made the active and inactive calls.

The subject of one experiment is INS1. Kind of experiment: INS-1E survival protection against cytokine death – cell-based, luminescence, retest, dose response (AID 449756).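 Note: cell death triggered by IL-1 beta plus TNF-alpha plus IFN-gamma mixture; protective hits raise ATP signal compared with cytokine alone wells.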 The class given is functional. The note with it: Rattus norvegicus.
Experiment [1] can be described thus: non-specific 3'UTR reporter inhibition in Clone20-Shn3RL – cell-based, Renilla luciferase, cherry-picked, counter-screen for Shn3 inhibitor project, dose response (AID 624133). The experiment is classed as functional. For orientation: The purpose of a counterscreen is to sort out artefacts and off-target activity.
The nature of experiment [2]: reduction of Shn3 3'UTR-driven luciferase in osteoblasts – cell-based, Clone20 osteoblasts, firefly luciferase, cherry-picked, dose response (AID 624132).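 Note: firefly luciferase luminescence from reporter carrying the Shn3 3'UTR in osteoblasts.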 The experiment is classed as functional.
A short description of experiment [3]: loss of viability in HepG2 cells – cell-based, CellTiter-Glo, cherry-picked, cytotoxicity control for Shn3 inhibitor project, dose response (AID 624134). The experiment is classed as functional. On the technique in general: In ATP-based viability assays light output follows the ATP content of the culture.
A further experiment concerns the target Galanin receptor type 2 (Homo sapiens, UniProt O43603). Kind of experiment: Dose Response cell-based high-throughput screening assay to identify antagonists of galanin receptor 2 (GALR2). [Related pubchem assays: 828, 866 ]. The class given is functional.
Experiment [4] has as its target Photoreceptor-specific nuclear receptor (Homo sapiens, UniProt Q9Y5X4). The experiment is described as follows: ligands suppressing NR2E3 nuclear receptor activity – biochemical, TR-FRET, dose response (AID 463256). The class given is functional. A general note: In TR-FRET formats the signal depends on donor and acceptor labels being close together.
The target of experiment [5] is Peroxisome proliferator-activated receptor gamma/Nuclear receptor corepressor 2 (Homo sapiens, UniProt P37231+Q9Y618). The experiment is described as follows: Counterscreen for NR2E3 inverse agonists: TR-FRET-based biochemical high throughput dose response assay to identify inverse agonists of the interaction between peroxisome proliferator-activated receptor gamma (PPARg) and nuclear receptor co-repressor 2 (NCOR2). The class given is functional.
Peroxisome proliferator-activated receptor gamma/Nuclear receptor corepressor 2, sequence (P37231 whole entry): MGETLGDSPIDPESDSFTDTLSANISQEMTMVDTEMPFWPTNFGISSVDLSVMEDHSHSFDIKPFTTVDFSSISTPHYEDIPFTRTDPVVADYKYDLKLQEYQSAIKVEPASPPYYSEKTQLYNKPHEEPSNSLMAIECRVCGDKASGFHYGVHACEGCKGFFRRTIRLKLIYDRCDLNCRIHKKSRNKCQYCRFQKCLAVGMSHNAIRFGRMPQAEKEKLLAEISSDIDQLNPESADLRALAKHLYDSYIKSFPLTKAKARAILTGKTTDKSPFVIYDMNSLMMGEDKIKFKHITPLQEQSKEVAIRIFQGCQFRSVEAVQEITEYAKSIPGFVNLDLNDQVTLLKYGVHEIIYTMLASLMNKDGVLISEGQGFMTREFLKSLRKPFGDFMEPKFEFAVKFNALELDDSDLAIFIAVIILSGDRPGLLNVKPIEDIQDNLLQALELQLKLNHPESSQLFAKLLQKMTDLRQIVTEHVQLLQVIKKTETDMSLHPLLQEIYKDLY
Peroxisome proliferator-activated receptor gamma/Nuclear receptor corepressor 2, sequence (Q9Y618 whole entry): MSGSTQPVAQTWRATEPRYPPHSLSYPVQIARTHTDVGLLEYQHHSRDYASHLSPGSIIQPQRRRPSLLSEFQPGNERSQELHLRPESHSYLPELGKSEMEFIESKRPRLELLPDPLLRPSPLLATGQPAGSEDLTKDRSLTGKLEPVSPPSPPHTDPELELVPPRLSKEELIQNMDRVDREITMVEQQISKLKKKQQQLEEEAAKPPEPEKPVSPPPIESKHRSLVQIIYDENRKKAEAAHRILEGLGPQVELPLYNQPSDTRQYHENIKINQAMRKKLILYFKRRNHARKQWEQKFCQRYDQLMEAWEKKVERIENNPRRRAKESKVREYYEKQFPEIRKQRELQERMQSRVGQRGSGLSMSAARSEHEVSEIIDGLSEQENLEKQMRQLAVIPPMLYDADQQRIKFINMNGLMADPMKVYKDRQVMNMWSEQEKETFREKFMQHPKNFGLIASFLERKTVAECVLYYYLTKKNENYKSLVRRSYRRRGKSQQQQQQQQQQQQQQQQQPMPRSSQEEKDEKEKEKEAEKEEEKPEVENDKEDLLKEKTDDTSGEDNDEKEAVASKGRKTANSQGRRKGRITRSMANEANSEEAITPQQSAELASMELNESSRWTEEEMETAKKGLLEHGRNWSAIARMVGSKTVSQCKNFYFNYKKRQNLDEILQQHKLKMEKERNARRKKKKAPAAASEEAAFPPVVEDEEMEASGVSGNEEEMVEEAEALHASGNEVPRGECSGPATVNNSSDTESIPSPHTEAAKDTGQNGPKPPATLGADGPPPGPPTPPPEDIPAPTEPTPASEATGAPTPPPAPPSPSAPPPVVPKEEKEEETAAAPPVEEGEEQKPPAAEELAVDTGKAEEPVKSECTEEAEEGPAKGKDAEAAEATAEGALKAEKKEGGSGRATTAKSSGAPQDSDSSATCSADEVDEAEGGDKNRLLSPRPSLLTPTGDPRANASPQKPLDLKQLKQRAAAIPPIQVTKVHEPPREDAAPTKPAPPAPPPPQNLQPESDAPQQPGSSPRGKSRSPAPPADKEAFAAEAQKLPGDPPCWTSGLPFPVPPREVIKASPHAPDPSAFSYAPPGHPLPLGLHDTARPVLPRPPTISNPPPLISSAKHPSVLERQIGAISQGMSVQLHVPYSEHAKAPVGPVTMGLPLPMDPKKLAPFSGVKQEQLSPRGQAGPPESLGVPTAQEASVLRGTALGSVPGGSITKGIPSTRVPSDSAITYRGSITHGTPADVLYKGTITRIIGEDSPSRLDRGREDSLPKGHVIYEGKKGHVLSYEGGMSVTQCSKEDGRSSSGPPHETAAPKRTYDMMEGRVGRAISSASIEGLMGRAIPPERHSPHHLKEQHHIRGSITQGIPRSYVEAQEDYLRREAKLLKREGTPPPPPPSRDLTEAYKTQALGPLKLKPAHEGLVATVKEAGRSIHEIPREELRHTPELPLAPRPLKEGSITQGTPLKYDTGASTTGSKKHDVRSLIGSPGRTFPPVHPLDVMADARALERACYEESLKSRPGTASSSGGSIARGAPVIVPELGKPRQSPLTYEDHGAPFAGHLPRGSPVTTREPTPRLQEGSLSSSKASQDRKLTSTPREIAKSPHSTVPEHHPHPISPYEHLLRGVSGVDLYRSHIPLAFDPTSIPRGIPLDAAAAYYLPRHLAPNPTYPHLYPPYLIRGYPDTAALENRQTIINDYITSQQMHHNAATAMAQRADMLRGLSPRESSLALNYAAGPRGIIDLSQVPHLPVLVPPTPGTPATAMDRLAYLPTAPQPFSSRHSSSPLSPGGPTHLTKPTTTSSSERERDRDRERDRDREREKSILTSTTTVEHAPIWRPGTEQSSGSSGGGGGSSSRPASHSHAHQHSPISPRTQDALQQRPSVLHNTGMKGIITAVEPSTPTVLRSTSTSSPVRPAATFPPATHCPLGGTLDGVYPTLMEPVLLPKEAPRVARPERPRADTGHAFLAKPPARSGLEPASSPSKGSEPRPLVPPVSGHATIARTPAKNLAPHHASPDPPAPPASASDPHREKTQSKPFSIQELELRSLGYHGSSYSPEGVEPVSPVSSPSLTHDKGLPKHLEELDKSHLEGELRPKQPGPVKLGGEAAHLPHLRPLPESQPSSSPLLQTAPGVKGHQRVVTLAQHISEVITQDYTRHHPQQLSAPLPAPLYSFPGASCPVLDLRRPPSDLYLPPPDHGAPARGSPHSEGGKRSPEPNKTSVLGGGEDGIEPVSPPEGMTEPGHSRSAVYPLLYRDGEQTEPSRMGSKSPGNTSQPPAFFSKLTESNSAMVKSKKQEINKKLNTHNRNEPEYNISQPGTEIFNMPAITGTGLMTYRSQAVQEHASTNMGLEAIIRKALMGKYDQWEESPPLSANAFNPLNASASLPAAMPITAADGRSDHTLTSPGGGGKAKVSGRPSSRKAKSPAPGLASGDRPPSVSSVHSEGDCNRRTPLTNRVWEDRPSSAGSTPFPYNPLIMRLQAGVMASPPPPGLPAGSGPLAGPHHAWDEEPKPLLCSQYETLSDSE

The target in experiment [6] is T1, Cytochrome P450 2C19 (Homo sapiens, UniProt P33261). The experiment is described as follows: qHTS Assay for Inhibitors and Substrates of Cytochrome P450 2C19. [Related pubchem assays: 410 ]. The class given is ADME. To be noted: read-out: Potency.
T1 sequence (P33261 whole entry): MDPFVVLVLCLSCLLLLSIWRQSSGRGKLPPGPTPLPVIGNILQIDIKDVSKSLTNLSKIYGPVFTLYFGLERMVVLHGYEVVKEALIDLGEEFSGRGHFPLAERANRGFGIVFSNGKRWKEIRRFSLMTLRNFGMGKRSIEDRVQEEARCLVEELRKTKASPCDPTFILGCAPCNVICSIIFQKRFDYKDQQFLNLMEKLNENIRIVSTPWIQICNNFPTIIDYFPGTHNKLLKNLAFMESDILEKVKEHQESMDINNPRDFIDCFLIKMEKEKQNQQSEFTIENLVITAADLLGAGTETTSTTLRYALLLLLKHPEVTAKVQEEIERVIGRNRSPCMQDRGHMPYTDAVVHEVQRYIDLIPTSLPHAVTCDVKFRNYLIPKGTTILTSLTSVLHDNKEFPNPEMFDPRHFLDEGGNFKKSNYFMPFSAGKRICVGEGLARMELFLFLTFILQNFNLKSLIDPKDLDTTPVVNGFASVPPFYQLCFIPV
The next experiment has as its system Streptococcus. The experiment is described as follows: GAS UMAA2166 growth inhibition – luminescence, BacTiterGlo, counter-screen for streptokinase expression inhibitor project, dose response (AID 1915).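 Note: potency for reduction of bacterial viability or growth.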 The class given is functional, organism-based.
Experiment [7] can be described thus: HEK-293T viability loss after treatment – luminescence, T-cell screen hits, cytotoxicity control for TCR NF-kB inhibitor project, dose response (AID 489026).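 Note: cells exposed to compound about 14 hours before the viability readout.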 The experiment is classed as functional, cell-based.
The next experiment has as its target T2, Streptokinase A (Streptococcus pyogenes serotype M1, UniProt P10520).
T2 sequence (P10520 whole entry): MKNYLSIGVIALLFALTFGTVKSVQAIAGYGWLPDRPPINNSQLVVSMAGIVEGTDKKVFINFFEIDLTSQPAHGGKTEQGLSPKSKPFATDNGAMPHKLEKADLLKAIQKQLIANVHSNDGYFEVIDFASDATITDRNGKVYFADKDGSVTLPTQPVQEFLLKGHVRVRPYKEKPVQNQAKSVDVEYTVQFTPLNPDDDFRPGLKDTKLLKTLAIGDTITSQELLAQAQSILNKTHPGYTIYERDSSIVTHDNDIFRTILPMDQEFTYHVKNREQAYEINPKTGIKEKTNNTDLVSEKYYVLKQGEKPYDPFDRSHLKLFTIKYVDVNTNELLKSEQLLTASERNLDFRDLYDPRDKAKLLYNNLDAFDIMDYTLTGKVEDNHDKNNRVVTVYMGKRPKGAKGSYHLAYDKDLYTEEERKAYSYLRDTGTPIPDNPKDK
The experiment is described as follows: viability-normalized secreted streptokinase activity reduction – plasminogen activation absorbance, OD405, dose response (AID 1914).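 Note: secreted streptokinase activity via plasminogen activation per viability signal from cell pellet.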 The class given is functional, Streptococcus pyogenes M1 GAS.

The target in experiment [8] is T3, Tyrosine-protein phosphatase non-receptor type 7 (Homo sapiens, UniProt P35236).
T3 sequence (P35236 whole entry): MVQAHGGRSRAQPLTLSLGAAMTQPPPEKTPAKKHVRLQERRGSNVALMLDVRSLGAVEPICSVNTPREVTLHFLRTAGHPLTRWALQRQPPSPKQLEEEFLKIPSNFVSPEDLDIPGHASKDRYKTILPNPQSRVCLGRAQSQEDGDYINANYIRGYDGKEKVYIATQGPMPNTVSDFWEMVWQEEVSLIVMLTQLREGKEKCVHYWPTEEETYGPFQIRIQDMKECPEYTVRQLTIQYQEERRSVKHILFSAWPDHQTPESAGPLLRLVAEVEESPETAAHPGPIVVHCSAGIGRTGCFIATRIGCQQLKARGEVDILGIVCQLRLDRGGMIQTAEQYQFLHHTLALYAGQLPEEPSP
Kind of experiment: HePTP tyrosine phosphatase activity blockers – biochemical, absorbance, leukemia target, primary screen (AID 521). The class given is functional.

Another experiment has as its target Cytochrome P450 2C9 (Homo sapiens, UniProt P11712).
Experiment [9] has as its target Protein-tyrosine kinase 2-beta (Homo sapiens, UniProt Q14289).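 Note: potency of inhibitors of PYK2 kinase phosphorylation of poly-GT substrate.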
The target of a further experiment is Cytochrome P450 2D6 (Homo sapiens, UniProt P10635).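 Note: CYP2D6 member of a cytochrome P450 panel assay.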
Experiment [10] concerns the target T1, Cytochrome P450 2C19. The experiment is described as follows: Cytochrome panel assay with activity outcomes. Panel member name: p450-cyp2c19 Compounds with AC50 equal or less than 10 uM are considered active. To be noted: read-out: AC50. The experiment is classed as functional.
A further experiment has as its target Aspartyl aminopeptidase (Plasmodium falciparum 3D7, UniProt Q8I2J3). Kind of experiment: Counterscreen for inhibitors of M1 and M17 aminopeptidases: QFRET-based biochemical high throughput dose response assay for inhibitors of the Plasmodium falciparum M18 Aspartyl Aminopeptidase (PFM18AAP). [Related PubChem assays: 1619 (Screening assay (M17LAP inhibitors).), 1445 (Screening assay (M1AAP inhibitors).)].

Another experiment has as its target Procathepsin L (Homo sapiens, UniProt P07711). The experiment is described as follows: CTSL1 protease inhibition – biochemical, QFRET, 1536-well, counter-screen for M1/M17 aminopeptidase inhibitor project, dose response (AID 2214).
The next experiment addresses T4, Leucine aminopeptidase (Plasmodium falciparum 3D7, UniProt Q8IL11).
T4 sequence (Q8IL11 whole entry): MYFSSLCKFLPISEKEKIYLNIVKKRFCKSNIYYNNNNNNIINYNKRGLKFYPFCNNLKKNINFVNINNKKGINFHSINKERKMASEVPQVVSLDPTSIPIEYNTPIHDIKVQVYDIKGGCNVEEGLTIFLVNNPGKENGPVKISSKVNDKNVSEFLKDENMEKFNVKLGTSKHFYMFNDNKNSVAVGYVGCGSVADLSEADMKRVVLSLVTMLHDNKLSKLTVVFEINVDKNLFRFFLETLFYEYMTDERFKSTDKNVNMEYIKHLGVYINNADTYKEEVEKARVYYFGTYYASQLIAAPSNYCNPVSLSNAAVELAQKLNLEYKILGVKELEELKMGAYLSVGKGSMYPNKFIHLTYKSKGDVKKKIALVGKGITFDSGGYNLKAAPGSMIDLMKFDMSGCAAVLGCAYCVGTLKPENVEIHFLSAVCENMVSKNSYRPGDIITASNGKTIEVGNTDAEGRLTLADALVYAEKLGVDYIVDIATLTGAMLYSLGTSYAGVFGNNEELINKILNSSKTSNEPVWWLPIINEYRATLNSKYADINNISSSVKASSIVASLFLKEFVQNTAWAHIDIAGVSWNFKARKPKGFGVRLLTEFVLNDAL
Kind of experiment: P. falciparum M17LAP inhibitors, primary screen, biochemical, fluorogenic H-Leu-NHMec substrate, 1536-well (AID 1619). The experiment is classed as functional.

Another experiment deals with 14-3-3 protein gamma (Homo sapiens, UniProt P61981). Kind of experiment: modulators of 14-3-3 gamma client binding – dose response (AID 711). The class given is functional.
The target of experiment [11] is T5, Aryl hydrocarbon receptor (Homo sapiens, UniProt P35869).
T5 sequence (P35869 whole entry): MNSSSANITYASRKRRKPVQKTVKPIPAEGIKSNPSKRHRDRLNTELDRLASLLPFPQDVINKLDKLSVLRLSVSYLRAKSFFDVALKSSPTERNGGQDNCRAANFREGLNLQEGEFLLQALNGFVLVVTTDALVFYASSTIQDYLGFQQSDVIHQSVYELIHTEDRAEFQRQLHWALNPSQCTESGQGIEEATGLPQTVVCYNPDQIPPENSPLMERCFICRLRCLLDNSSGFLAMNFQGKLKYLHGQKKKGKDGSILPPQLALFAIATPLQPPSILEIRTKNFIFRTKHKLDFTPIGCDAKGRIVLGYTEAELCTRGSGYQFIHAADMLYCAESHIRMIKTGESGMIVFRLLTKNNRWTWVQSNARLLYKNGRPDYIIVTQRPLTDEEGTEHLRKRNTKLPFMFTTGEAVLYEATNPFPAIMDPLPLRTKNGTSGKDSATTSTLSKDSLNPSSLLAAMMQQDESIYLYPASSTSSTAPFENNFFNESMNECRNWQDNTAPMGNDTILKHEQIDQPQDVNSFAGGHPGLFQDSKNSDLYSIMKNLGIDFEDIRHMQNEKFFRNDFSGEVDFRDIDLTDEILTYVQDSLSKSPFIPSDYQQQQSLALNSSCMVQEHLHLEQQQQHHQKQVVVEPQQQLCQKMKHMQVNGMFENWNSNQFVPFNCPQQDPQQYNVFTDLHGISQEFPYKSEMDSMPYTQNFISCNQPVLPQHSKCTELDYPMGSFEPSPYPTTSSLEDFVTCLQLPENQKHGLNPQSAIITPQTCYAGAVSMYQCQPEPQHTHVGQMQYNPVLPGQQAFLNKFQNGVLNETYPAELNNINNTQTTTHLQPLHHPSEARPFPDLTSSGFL
Kind of experiment: Luminescence-based cell-based high throughput dose response assay for activators of the Aryl Hydrocarbon Receptor (AHR). [Related pubchem assays: 2796 (Primary screen (AHR activators in singlicate)), 2845 (Confirmation screen (AHR activators in triplicate)), 434939 (Counterscreen (PXR activators in triplicate)), 2804 (Summary (AHR activators))]. The class given is ADME.

Experiment [12] addresses Mitogen-activated protein kinase 10 (Homo sapiens, UniProt P53779). Kind of experiment: Dose response biochemical screening assay for inhibitors of c-Jun N-Terminal Kinase 3 (JNK3). [Related pubchem assays: 746 ].
For experiment [13], the target named is 5-hydroxytryptamine receptor 1A (Homo sapiens, UniProt P08908). The class given is functional.
The target of experiment [14] is Diphosphomevalonate decarboxylase (Streptococcus pneumoniae serotype 2 (strain D39 / NCTC 7466), UniProt Q9FD53). Kind of experiment: diphosphomevalonate decarboxylase inhibitor confirmation – biochemical, cuvette format, coupled NADH fluorescence (AID 1028). The experiment is classed as functional.

Mitogen-activated protein kinase 10, sequence (P53779 whole entry): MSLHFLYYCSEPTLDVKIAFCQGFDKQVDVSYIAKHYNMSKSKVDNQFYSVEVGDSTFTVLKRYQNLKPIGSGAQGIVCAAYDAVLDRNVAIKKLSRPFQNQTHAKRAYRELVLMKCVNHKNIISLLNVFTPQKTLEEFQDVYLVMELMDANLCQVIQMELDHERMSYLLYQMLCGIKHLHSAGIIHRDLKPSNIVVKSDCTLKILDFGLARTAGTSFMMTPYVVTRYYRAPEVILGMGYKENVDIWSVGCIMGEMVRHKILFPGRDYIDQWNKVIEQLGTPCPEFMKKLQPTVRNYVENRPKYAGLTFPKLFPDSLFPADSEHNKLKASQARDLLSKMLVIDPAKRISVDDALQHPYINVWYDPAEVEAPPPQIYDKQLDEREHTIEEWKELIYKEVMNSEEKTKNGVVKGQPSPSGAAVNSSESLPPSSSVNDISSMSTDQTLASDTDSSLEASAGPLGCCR
Cytochrome P450 2C9, sequence (P11712 whole entry): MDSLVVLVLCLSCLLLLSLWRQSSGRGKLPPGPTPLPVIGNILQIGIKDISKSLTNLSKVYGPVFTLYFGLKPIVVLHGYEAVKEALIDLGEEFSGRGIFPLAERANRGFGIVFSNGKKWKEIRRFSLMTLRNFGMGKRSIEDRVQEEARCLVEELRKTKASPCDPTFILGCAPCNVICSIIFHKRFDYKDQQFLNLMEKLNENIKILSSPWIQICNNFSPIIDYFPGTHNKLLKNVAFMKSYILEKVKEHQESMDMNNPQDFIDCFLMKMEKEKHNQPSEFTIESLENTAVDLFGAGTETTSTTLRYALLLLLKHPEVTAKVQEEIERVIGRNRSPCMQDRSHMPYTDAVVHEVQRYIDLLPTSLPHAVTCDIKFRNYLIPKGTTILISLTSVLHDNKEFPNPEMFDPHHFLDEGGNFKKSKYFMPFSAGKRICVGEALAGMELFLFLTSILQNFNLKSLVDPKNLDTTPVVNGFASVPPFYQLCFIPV
Aspartyl aminopeptidase, sequence (Q8I2J3 whole entry): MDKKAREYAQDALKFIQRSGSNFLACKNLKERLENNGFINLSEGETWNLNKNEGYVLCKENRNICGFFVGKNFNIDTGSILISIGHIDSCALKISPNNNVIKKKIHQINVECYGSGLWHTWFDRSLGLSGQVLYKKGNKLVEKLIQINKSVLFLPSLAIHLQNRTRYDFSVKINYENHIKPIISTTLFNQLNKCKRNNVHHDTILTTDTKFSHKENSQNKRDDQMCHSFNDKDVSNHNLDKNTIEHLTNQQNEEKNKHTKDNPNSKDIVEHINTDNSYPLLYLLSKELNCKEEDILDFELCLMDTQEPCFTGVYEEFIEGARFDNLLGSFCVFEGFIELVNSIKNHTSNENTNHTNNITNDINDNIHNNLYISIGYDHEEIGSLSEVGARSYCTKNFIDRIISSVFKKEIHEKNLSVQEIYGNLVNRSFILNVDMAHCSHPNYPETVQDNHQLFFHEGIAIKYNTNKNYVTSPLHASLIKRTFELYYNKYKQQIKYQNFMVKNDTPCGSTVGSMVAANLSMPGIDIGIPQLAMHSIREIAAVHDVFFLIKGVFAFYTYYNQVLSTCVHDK

The term IC50 denotes the concentration that gives 50% inhibition. As to `Cc1cccc(C(=O)Nc2ccc(C(=O)/C=C/c3cccnc3)cc2)c1`, the AC50 in the experiment with INS1 was 5.53 µM (active); in [1] it was 10.7 µM (active); in [2] it was 6.23 µM (active); in [3] it was 30.9 µM (active). Further, the IC50 on Galanin receptor type 2 was 21.4 µM (not active).
`COc1ccc(-n2nc(C(=O)NCC(=O)NCc3ccc(F)cc3)c3ccccc3c2=O)cc1OC`: the IC50 was 1.46 µM (active) in [4] and 0.941 µM (active) in experiment [5].
Regarding `COC(=O)C(C(C)=O)C(NC(=O)NCc1ccccc1)c1ccccc1` (centres undefined), the AC50 at Cytochrome P450 2C19 [6] was 1.26 µM (inconclusive).
One may read the EC50 as the concentration giving half of the maximal effect. With `COc1cccc2sc(Nc3nnc(-c4ccccc4Cl)o3)nc12`, the values for the EC50 in the experiment on Streptococcus and on Streptokinase A were > 150 µM (inconclusive) and > 150 µM (not active), respectively. Also, the IC50 in experiment [7] was 61.1 µM (inactive); in experiment [8], > 100 µM (not active).
On to `O=C(NCCc1c[nH]c2ccccc12)C1CCN(c2nnc(N3CCCC3=O)s2)CC1`, for which the AC50 at Cytochrome P450 2C9 was 10 µM (inconclusive); at Cytochrome P450 2D6 it was 10 µM (inconclusive); at Cytochrome P450 2C19 [10] it was 7.94 µM (inconclusive). Besides, in experiment [9], the IC50 is listed as 22.7 µM (not active).
Consider `Cc1c(O)n(-c2ccccc2)c(SCC(=O)Nc2ccc3c4c(cccc24)CC3)nc1=O`, for which the results for the IC50 at Aspartyl aminopeptidase, at Procathepsin L and at Leucine aminopeptidase were > 73.5 µM (not active), > 59.6 µM (not active) and 5.11 µM (active), respectively.
On to `Cc1nc2nc(Cc3ccccc3)nn2c(O)c1Cc1ccccc1`, for which, on 14-3-3 protein gamma, the IC50 was > 50 µM (not active).
For `NC(=O)c1oc2ccccc2c1NC(=O)c1ccc(F)cc1`, the concentration for a half-maximal effect (EC50) in experiment [11] is 4.12 µM (active). Besides, the IC50 in [12] was 23.9 µM (not active).
On to `O=S(=O)(c1cccc(Cl)c1)N1CCCC1`, for which, in experiment [13], the 50% effective concentration (EC50) is recorded as > 50 µM (not active).
Consider `O=C(NC1CC1)c1ccc(-n2sc3ccccc3c2=O)cc1`, for which the IC50 in experiment [14] is 11.4 µM (active).
